The results in this text go back to ChEMBL document CHEMBL3507680, “University of Dundee, Gates Library screen for HepG2 cell viability”.

This data set in a line: Human HepG2 cell viability assay in 384 well format. More on the design: dose 125 nL, time 70.5 hour; concentration not given beside the values. It counts as toxicity, cell-based. The conditions noted are these: HepG2 cells, read-out: Inhibition.
In the case of `CCOc1cccc2c1OCC(=O)N(c1ccc3c(c1)OCCO3)C2`, the cytotoxicity at 70.5 h was -6.5%.

`C=C(C)CN1CCOC(Cn2cncn2)C1` (stereo not given): the cytotoxicity at 70.5 h is 32%.

With `Cn1ncc(NCc2cccc(OCC(F)(F)F)c2)c(Cl)c1=O`, the cytotoxicity at 70.5 h is 18.3%.

Regarding `CS(=O)(=O)NC1CC2(CCN(CCF)CC2)Oc2ccccc21` (stereo not given), the cytotoxicity at 70.5 h is -4.96%.

Turning to `Cn1cccc1C(=O)N1CC[C@H]2[C@H]1CCN2CC1CCOCC1`, the cytotoxicity at 70.5 h is -0.0713%.

Regarding `Cc1noc(C)c1-c1ccc(C2CCCN2C(=O)c2ccncn2)nc1` (stereo not given), the cytotoxicity at 70.5 h worked out at 27.1%.

As for `CC(CNS(=O)(=O)c1cccc(Cl)c1)N1CCN(C)CC1` (stereo not given), the cytotoxicity at 70.5 h was -5.03%.

Turning to `CC1c2ncc(CNC(=O)C3CC3)n2CCN1CC1CCC1` (stereo not given), the cytotoxicity at 70.5 h is -10.3%.

Regarding `COc1ccncc1NCc1cscn1`, the cytotoxicity at 70.5 h was -0.709%.

On to `O=C(c1cc(-c2ccco2)cs1)N1CCOCC1`, for which the cytotoxicity at 70.5 h was -0.411%.

In the case of `Cc1nccn1Cc1nnc(C2CCCN(c3cnccn3)C2)n1C` (stereo not given), the cytotoxicity at 70.5 h was -18.6%.

As for `Cc1cccnc1NC(=O)c1ccc(-n2cncn2)nn1`, the cytotoxicity at 70.5 h was 1.65%.

With `CNc1cncc(C2CCCN2Cc2ccccc2OCC(=O)O)n1` (stereo not given), the cytotoxicity at 70.5 h is -8.8%.

In the case of `CN(C)c1nccc(CNC(=O)NCc2ccco2)n1`, the cytotoxicity at 70.5 h was -8.38%.

Regarding `Cc1nc2c(c(N3CCC(O)(Cn4ccnc4)CC3)n1)CCNCC2`, the cytotoxicity at 70.5 h is -1.99%.

With `N#Cc1ccc(N2CCC(NS(=O)(=O)c3cccs3)CC2)c(F)c1`, the cytotoxicity at 70.5 h was -9.83%.

As for `Cc1ccc(C(=O)Nc2cn[nH]c2)cc1C`, the cytotoxicity at 70.5 h was -1.12%.

Regarding `COc1cc(OC)c(CNC(=O)NCC(=O)N2CCCC2)c(OC)c1`, the cytotoxicity at 70.5 h is -6.53%.

Turning to `c1ncc(-c2cn(CCSc3cnn[nH]3)nn2)cn1`, the cytotoxicity at 70.5 h was -6.48%.

Regarding `CNS(=O)(=O)c1ccc(CNC(=O)Nc2cn[nH]c2)cc1`, the cytotoxicity at 70.5 h is -5.63%.

In the case of `c1cc(-c2nc3c(c(NCCc4c[nH]cn4)n2)CCNCC3)ccn1`, the cytotoxicity at 70.5 h stood at 5.61%.

Turning to `Cc1cc2nc(C(C)C)cc(NCCNc3ncccc3C)n2n1`, the cytotoxicity at 70.5 h worked out at 12.1%.

Take `CCOc1ccccc1C(CC(=O)Nc1ncc(C)s1)NC(C)=O` (stereo not given): the cytotoxicity at 70.5 h stood at 14.6%.

Consider `CCN1CCC12CCN(C(=O)c1cc(C)on1)C2` (stereo not given), for which the cytotoxicity at 70.5 h is -2.64%.

With `Cc1nn(C)c(Cl)c1CN1CCN(c2nccs2)C(C)C1` (stereo not given), the cytotoxicity at 70.5 h turned out to be 2.61%.

For `COCCN1CCC2(CCN(C(=O)c3ccc(F)cc3)CC2)C1=O`, the cytotoxicity at 70.5 h stood at 18.4%.

In the case of `Cc1csc(N2CCN(Cc3ccccn3)CC2)n1`, the cytotoxicity at 70.5 h was -9.56%.

In the case of `O=C(Nc1ccccn1)C1CC(=O)N(Cc2ccccn2)C1` (stereo not given), the cytotoxicity at 70.5 h was determined as 16.8%.

On to `COc1cc(S(=O)(=O)Nc2cn[nH]c2)ccc1Br`, for which the cytotoxicity at 70.5 h was -12.7%.

With `CN(Cc1nccn1C)C(=O)C1COCC(=O)N1Cc1ccccc1` (stereo not given), the cytotoxicity at 70.5 h is 30.1%.

In the case of `CCC(CO)N(Cc1ccsc1)Cc1ccc(-c2ccn[nH]2)s1` (stereo not given), the cytotoxicity at 70.5 h is -5.61%.

With `CCc1cnc(N2Cc3cnc(C(C)(C)C)nc3C2)nc1`, the cytotoxicity at 70.5 h is -3.57%.

As to `O=S(=O)(c1cc(F)ccc1F)N1CCCC1c1ccco1` (stereo not given), the cytotoxicity at 70.5 h was -6.01%.

Regarding `O=C(c1ncoc1C1CCCO1)N1CCC2(CCCCC2)CC1` (stereo not given), the cytotoxicity at 70.5 h is -3.26%.

In the case of `COC(=O)c1cc(OCC2CCC2)cc(C(=O)NCC(C)(C)O)c1`, the cytotoxicity at 70.5 h was -4.36%.

Consider `CN1CCC(c2cccc(NCc3nccn3C)n2)CC1`, for which the cytotoxicity at 70.5 h was found to be 22.4%.

Consider `Cc1cnn(CC2CCCN2C(=O)Cc2c(C)noc2Cl)c1` (stereo not given), for which the cytotoxicity at 70.5 h was -4.41%.

On to `COCCc1noc(CN2CCCCC2Cn2cncn2)n1` (stereo not given), for which the cytotoxicity at 70.5 h was -8.74%.

`CN(C)C(=O)NC[C@@H]1OC[C@H]2CN(Cc3cccc(F)c3)CC[C@H]21`: the cytotoxicity at 70.5 h is -6.1%.

In the case of `COCCN(Cc1cnn(C)c1)C(=O)C1COc2c(cccc2OC)C1` (stereo not given), the cytotoxicity at 70.5 h came to 0.35%.

As for `CC(C)C[C@H]1CN(c2nc3c(cc2C(N)=O)CCC3)CC[C@@]1(C)O`, the cytotoxicity at 70.5 h was -7.33%.

As to `CCOCCOC(C)C(=O)NCc1ccc(N2CCCCC2)cc1` (stereo not given), the cytotoxicity at 70.5 h amounted to 0.804%.

Consider `CC(C)c1noc(CN2CCCC2c2noc(C(C)C)n2)n1` (stereo not given), for which the cytotoxicity at 70.5 h is -9.32%.

Take `COc1cc(CNc2cc(-c3nncn3C)ccn2)cc(OC)c1OC`: the cytotoxicity at 70.5 h is -3.3%.

As to `Cc1cnc(N)c(C(=O)C2CCN(C(=O)c3ccccc3F)CC2)c1`, the cytotoxicity at 70.5 h is -11.6%.

Turning to `O=C(NCC1CC1)[C@@H]1CCO[C@@H]2CCN(Cc3ccsc3)C[C@H]21`, the cytotoxicity at 70.5 h was -10.2%.

As for `O=C(c1nc(COc2ccc3c(c2)OCO3)no1)N1CCCC1`, the cytotoxicity at 70.5 h is -3.83%.

For `CC(C)Nc1nc2c(s1)C(=O)CN(C)C2`, the cytotoxicity at 70.5 h was 4.07%.

Take `CCOCC(=O)N1CCC(C)(c2nccs2)CC1`: the cytotoxicity at 70.5 h stood at 13.6%.

For `CC1(c2ncc(CN3CCN(c4ncccn4)CC3)cn2)CCCCO1` (stereo not given), the cytotoxicity at 70.5 h is -9.22%.

Turning to `CC(=O)N1CCC(C(=O)N(C)[C@@H]2CCC[C@@H](N3CCCC3)[C@@H]2O)CC1`, the cytotoxicity at 70.5 h was found to be 41.3%.

For `COc1cc(OC)cc(N2CCC(NCc3cc[nH]n3)C2)c1` (stereo not given), the cytotoxicity at 70.5 h turned out to be 40.6%.

With `O=C(Cc1csc(-c2ccco2)n1)N1CCSCC1`, the cytotoxicity at 70.5 h is -11.7%.

As for `O=C(CCn1c(C(F)F)cc2cccnc21)NC1CC1`, the cytotoxicity at 70.5 h was -5.74%.

For the compound `O=C(Nc1nncs1)N1CCC(CCc2ccc(O)cc2)CC1`, the cytotoxicity at 70.5 h is -14.7%.

Take `CC(C)Cc1nc(OCC#N)c(C#N)c2c1CCC2`: the cytotoxicity at 70.5 h is -2.63%.

Turning to `CC(c1nc(C(C)(C)C)no1)N1CCN(Cc2ccco2)CC1` (stereo not given), the cytotoxicity at 70.5 h is -15%.

As for `CCC(Nc1nnnn1-c1ccccc1)C(=O)NCc1cccs1` (stereo not given), the cytotoxicity at 70.5 h is -8.74%.

As to `CNC(=O)CC1CCN(C(=O)NCc2coc3ccccc23)CC1`, the cytotoxicity at 70.5 h was 7.31%.

Consider `CCc1n[nH]c(C2CN(C(=O)Cn3ccccc3=O)CCO2)n1` (stereo not given), for which the cytotoxicity at 70.5 h amounted to 21.1%.

As for `Cc1ccc(S(=O)(=O)NCCc2nnc[nH]2)c2cccnc12`, the cytotoxicity at 70.5 h stood at 15.2%.

As for `O=C(NCCc1ccccn1)c1[nH]nc2c1CCCC2`, the cytotoxicity at 70.5 h was 3.78%.

With `Cn1c(CN2CCN(c3cccnc3)CC2)cc2ccccc21`, the cytotoxicity at 70.5 h is -4.28%.

`Cc1nc2ccnn2c(C)c1CCC(=O)N1CCN2CCCCC2C1` (stereo not given): the cytotoxicity at 70.5 h is -9.21%.

For `CCCS(=O)(=O)N1Cc2ccnn2CC(c2nc(C)no2)C1` (stereo not given), the cytotoxicity at 70.5 h is -4.93%.

Turning to `CCC1CN(Cc2c(O)ccc3oc4c(c23)CCCC4)CCO1` (stereo not given), the cytotoxicity at 70.5 h came to 8.92%.

As for `COCCn1ccc(=O)c(OCC(=O)Nc2cccc(C(C)=O)c2)c1C`, the cytotoxicity at 70.5 h was -4.4%.

For the compound `CCCC(O)CN1CC(C)(C)CN(C(=O)c2ccc(SC)cc2)CC1=O` (stereo not given), the cytotoxicity at 70.5 h was -8.02%.

For the compound `Cn1cccc1C(=O)N1CC[C@@]2(O)CCN(S(C)(=O)=O)C[C@H]2C1`, the cytotoxicity at 70.5 h was -6.36%.

Regarding `O=C(CCc1ccccc1)N1CCC(N2CCNC2=O)CC1`, the cytotoxicity at 70.5 h is -8.47%.

With `CC(=O)N1CC[C@]2(O)CCN(Cc3nc(C)c[nH]3)C[C@@H]2C1`, the cytotoxicity at 70.5 h worked out at 9.69%.

Regarding `CCCSc1ncccc1C(=O)NCc1ccc(S(N)(=O)=O)cc1`, the cytotoxicity at 70.5 h is -4.05%.

For `O=C(c1cnc(Nc2ccccc2)nc1)N1CCS(=O)(=O)CC1`, the cytotoxicity at 70.5 h was -8.85%.

Take `O[C@H]1CC[C@@H](Cc2cc(-c3ccccn3)on2)O[C@@H]1CNCC1CC1`: the cytotoxicity at 70.5 h was -7.3%.

For `CN1[C@H]2CC[C@@H]1CN(C(=O)c1ccc(-c3ccccc3)[nH]1)CC2`, the cytotoxicity at 70.5 h is -2.64%.

Take `NC1(c2nc(-c3cccs3)cc(=O)[nH]2)CCCC1`: the cytotoxicity at 70.5 h is 8.08%.

For the compound `CCNc1ccnc(NC2CCN(CC(N)=O)CC2)n1`, the cytotoxicity at 70.5 h was found to be 14%.

Turning to `COc1ccccc1C(C)CNC(=O)c1c(C)nn(C)c1OC` (stereo not given), the cytotoxicity at 70.5 h was -3.39%.

Take `CN(C)CCn1c(=O)oc2ccc(NC(=O)C3CCCO3)cc21` (stereo not given): the cytotoxicity at 70.5 h amounted to 1.22%.

For `CN1CCC(Cc2cc(N(C)C)ncn2)C1` (stereo not given), the cytotoxicity at 70.5 h came out at 5.25%.

Consider `OCCN1CCC(CNCc2ccc(Br)cc2)CC1`, for which the cytotoxicity at 70.5 h was -1.11%.

On to `CN(C)CCN1C[C@@H]2CN(S(=O)(=O)c3ccccc3)C[C@@H]2C1=O`, for which the cytotoxicity at 70.5 h was -0.863%.

For `Cc1nn(C)c2nc(N(C)CCN(C)C)sc12`, the cytotoxicity at 70.5 h is -9.29%.

As to `COCC1c2c(cnn2C)CCN1Cc1ccc(C)cc1` (stereo not given), the cytotoxicity at 70.5 h amounted to 42.3%.

As to `CNC(=O)[C@H]1C[C@@H]2CN(Cc3cccnc3OC)C[C@@H]2N1C(C)C`, the cytotoxicity at 70.5 h is -7.89%.

For the compound `Cc1ncsc1C(=O)NC1CCN(Cc2ccc(C(F)(F)F)cc2)CC1`, the cytotoxicity at 70.5 h is 26.5%.

Consider `CC(C)(C)c1cnc(CN2CCC(NC(=O)Nc3ccccc3)CC2)o1`, for which the cytotoxicity at 70.5 h was determined as 15.4%.

As for `CNc1ccc(C2CN(c3nc(C)cc(C)n3)CCO2)nc1` (stereo not given), the cytotoxicity at 70.5 h was -2.83%.

As for `CC(C)NC(=O)c1cc2c(s1)CCN2C(=O)CN(C)C`, the cytotoxicity at 70.5 h is -4.91%.

On to `CC(C)N(Cc1ccc(C#N)cc1)C(=O)Nc1ccncc1`, for which the cytotoxicity at 70.5 h was -9.08%.

Regarding `CN(C)C(=O)COCc1nnc2n1CCN(Cc1ccsc1)C2`, the cytotoxicity at 70.5 h turned out to be 0.94%.

Take `CCN1CCCC(c2cc(Nc3cnccn3)nc(C)n2)C1` (stereo not given): the cytotoxicity at 70.5 h was -6.21%.

For `CC1(C2CCN(CC(N)=O)CC2)CN(Cc2ccccc2)C(=O)CO1` (stereo not given), the cytotoxicity at 70.5 h is -6.63%.

In the case of `Cc1ccc(CSc2ncc(Br)c(C(=O)O)n2)cc1`, the cytotoxicity at 70.5 h stood at 0.214%.

On to `COc1c(CNC(c2ccc(F)cc2)c2nccn2C)c(C)nn1C` (stereo not given), for which the cytotoxicity at 70.5 h came to 45.1%.

`Cc1cn2nc(N3CCCC3C(=O)N3CCOCC3)sc2n1` (stereo not given): the cytotoxicity at 70.5 h is -15.3%.

Regarding `O=C(O)C1(Oc2ccc(Cl)cc2)CCN(C2CCOCC2)CC1`, the cytotoxicity at 70.5 h was -17.1%.

`CCC1(CO)CCCN(C(=O)c2cc(COc3ccccc3F)[nH]n2)C1` (stereo not given): the cytotoxicity at 70.5 h was -0.863%.

Consider `CS(=O)(=O)NCC1CCCN(C(=O)COCC(F)(F)F)C1` (stereo not given), for which the cytotoxicity at 70.5 h was -21%.

In the case of `c1cncc(OC[C@@H]2CC[C@H]3[C@H](CCN3Cc3cccs3)O2)c1`, the cytotoxicity at 70.5 h was -4.43%.
